According to ChEMBL document CHEMBL1145821, “Dihydrofolate reductase mutant with exceptional resistance to methotrexate but not to trimetrexate” (J Med Chem, 2003):

Columns and labels:
Dihydrofolate reductase [1] = molecular target: T1, Dihydrofolate reductase (Mus musculus, UniProt P00375); assay: Combined effect of active site mutation F31A and F34A on inhibitory effect for F31A/F34A murine dihydrofolate reductase (DHFR)
Dihydrofolate reductase [2] = molecular target: T2, Dihydrofolate reductase (Mus musculus, UniProt P00375); assay: Inhibitory constant for F31A/F34A murine dihydrofolate reductase (DHFR)
T2 sequence (P00375 whole entry): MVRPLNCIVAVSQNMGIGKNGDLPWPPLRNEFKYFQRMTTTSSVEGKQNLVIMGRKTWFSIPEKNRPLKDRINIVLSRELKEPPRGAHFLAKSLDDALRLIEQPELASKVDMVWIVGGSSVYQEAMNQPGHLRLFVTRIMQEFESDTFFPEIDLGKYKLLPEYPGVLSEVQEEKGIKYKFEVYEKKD

Dihydrofolate reductase [3] = molecular target: T1, Dihydrofolate reductase; assay: Combined effect of active site mutation F31A and F34A on inhibitory effect for murine Wild-type dihydrofolate reductase (DHFR)
[4] = molecular target: T3, Dihydrofolate reductase (Mus musculus) (UniProt P00375)
T3 sequence (whole entry): T2 sequence (P00375 whole entry)

Dihydrofolate reductase [5] = molecular target: T2, Dihydrofolate reductase; assay: Inhibitory constant for murine Wild-type dihydrofolate reductase (DHFR)

`CN(Cc1cnc2nc(N)nc(N)c2n1)c1ccc(C(=O)NC(CCC(=O)NCCCCCCCCCCCCNC(=O)CCC(NC(=O)c2ccc(N(C)Cc3cnc4nc(N)nc(N)c4n3)cc2)C(=O)O)C(=O)O)cc1` (centres undefined) showed a Ki·kcat/Km (Dihydrofolate reductase [1]) of 0.112 s⁻¹, a Ki (Dihydrofolate reductase [2]) of 212 nM and a Ki·kcat/Km (Dihydrofolate reductase [3]) of 0.00126 s⁻¹. It also gave a Kimut/Kiwt [4] of 4410.
In the case of `COc1cc(NCc2ccc3nc(N)nc(N)c3c2C)cc(OC)c1OC` [TRIMETREXATE], the Ki·kcat/Km (Dihydrofolate reductase [1]) is reported as 0.00043 s⁻¹, the Ki (Dihydrofolate reductase [2]) is reported as 0.81 nM and the Ki·kcat/Km (Dihydrofolate reductase [3]) is reported as 0.00158 s⁻¹. It also gave a Kimut/Kiwt [4] of 13.5 and a Ki (Dihydrofolate reductase [5]) of 0.06 nM.
